Two compounds from patent EP0294069A2, “Purine compounds, process for their preparation, intermediates and pharmaceutical compositions” (priority 1987, dated 1988) can be followed below.

Molecules are shown by their SMILES. Converted amounts (≈) assume the structure as drawn.

Data set [1] in a line: Antiviral potency, comparison of isomers (no method given). The following applies: as compared with the (R)-isomer.
The test system of data set [2] is Visna Virus (K184 strain in SCP cells). In words: CPE inhibition test (established monolayer) for lentiviruses. As to conditions: Visna-maedi virus. Format: cell-based. As to the method:
3 x 10⁴ sheep choroid plexus (SCP) cells were plated into individual wells of a 96 well microtitre plate in 100µl of Eagle's MEM with Hanks salts containing 10% heat inactivated foetal calf serum (FCS). When monolayers had become established (after l or 2 days growth) they were washed with 200µl of maintenance medium (Eagle's MEM with Hanks salts containing 0.5% FCS) and infected with 100µl of visna virus (strain K184) in maintenance medium (30 TCID₅₀/ml). Test samples were diluted with maintenance medium in further 96 well microtitre plates over the range 200-0.09µg/ml by 3-fold dilution steps. 100µl of the diluted samples was then transferred directly onto virus-infected monolayers (final concentration range therefore 100-0.045µg/ml) and incubated at 37°C in a humidified, 5% CO₂ incubation until virus-induced CPE was maximal in the untreated virus-infected controls (usually 12-14 days). The plates were fixed with formal saline and stained with crystal violet. Virus-induced CPE was then scored microscopically and the minimum concentration of sample giving complete protection of the cell monolayers (MIC) determined.

In data set [3] the test system is HSV-1 (SC16 strain, MRC-5 cells). Briefly: Plaque reduction test for herpes simplex virus 1. It is filed as cell-based. As to conditions: Human alphaherpesvirus 1, MRC5, plaque number reduced by 50%. A general note: Plaques are areas of infected cells; plaque reduction assays count them against a control.
In data set [4] the test system is HSV-2 (MS strain, MRC-5 cells). Briefly: Plaque reduction test for herpes simplex virus 2. Format: cell-based. The following applies: Human alphaherpesvirus 2, MRC5, plaque number reduced by 50%. The procedure: Cells (Vero or MRC-5) were grown to confluence in 24 well multi-dishes (well diameter = 1.5cm). The drained cell monolayers were each infected with approximately 50 infectious particles of herpes simplex virus 1 (HSV-1; strain HFEM) or herpes simplex virus 2 (HSV-2; strain MS) in 100µl of phosphate-buffered saline. The virus was adsorbed for 1 hour at room temperature. After adsorption, residual inoculum was removed from each well and replaced with 0.5ml of Eagle's MEM containing 5% newborn calf serum and 0.9% agarose (A37). Once the agarose had set, dilutions of the test compound, which had been prepared in Eagle's MEM (containing 5% newborn calf serum), were added, each well receiving 0.5ml of liquid overlay. The test compound was diluted to give the following series of concentrations: 200, 60, 20, 6....0.06µg/ml; final concentrations in the assay ranged, therefore, between 100µg/ml and 0.03µg/ml. […]
Cultures were fixed in formal saline, the agarose overlays were carefully washed off, and then the cell monolayers were stained with carbol fuchsin. […] The IC₅₀ (concentration to drug which inhibits plaque number by 50% relative to the number of plaques observed in virus control monolayers) of the test compound was calculated. In addition, the monolayers were examined for evidence of drug-induced cytotoxicity; the minimum concentration at which cytotoxicity occurs was recorded.

Data set [5] is described as follows: Drug-induced cytotoxicity in uninfected cell monolayers. The following applies: uninfected cells, not cytotoxic at concentrations up to 100 µg/ml, read-out: concentration at which cytotoxicity occurs. Format: cell-based. As to the method: Cultures were fixed in formal saline, the agarose overlays were carefully washed off, and then the cell monolayers were stained with carbol fuchsin. A stereo microscope was used to count plaques. The IC₅₀ (concentration to drug which inhibits plaque number by 50% relative to the number of plaques observed in virus control monolayers) of the test compound was calculated. In addition, the monolayers were examined for evidence of drug-induced cytotoxicity; the minimum concentration at which cytotoxicity occurs was recorded.

Consider `Nc1ncc2ncn(OC[C@@H](O)CO)c2n1` [Example, (S)-2-Amino-9-(2,3-dihydroxyprop-l-oxy)purine], for which, in data set [1], the “potency as an antiviral agent” value is “greater potency”.
For the compound `Nc1nc2c(ncn2OC[C@@H](O)CO)c(=O)[nH]1` [Preparation Example, (S)-9-(2,3-Dihydroxyprop-1-oxy)quanine], the IC50 (in general, the midpoint of a concentration-inhibition curve) in data set [2] was determined as 10 µg/mL (≈ 41.5 µM); in data set [3], 0.7 µg/mL (≈ 2.9 µM); in data set [4] it was 0.06 µg/mL (≈ 0.249 µM). Also, in data set [5], the MCC was > 100 µg/mL.
